Reference: patent US20240293336A1, “PERCUTANEOUS ABSORPTION FORMULATION FOR TREATING SLEEP DISORDERS” (SINSIN PHARM CO., LTD., priority 2016, published 2024)

Assays:
[1] = Observation of crystal formation in the patch; type: physicochemical
Experimental: (§1) 10 wt % melatonin was placed in a 70 mL vial and dissolved in methanol, and then 90 wt % adhesive was added thereto, followed by mixing in a roll mixer for 2 hours. Next, the mixture was allowed to stand for 30 minutes to remove bubbles, after which a silicone-treated polyethylene terephthalate release film was placed on a coating machine, and the mixed adhesive was dried, and then coated onto the release film to 70 μm. Thereafter, the resultant was dried in an oven at 80° C. for 3 minutes, and then a supporting layer film was laminated thereon and compressed using a roller press. The resultant was cut of a patch cutter, thereby manufacturing a patch having an area of 10 cm^2. Next, the physical properties of the patch and crystal formation were observed, and a percutaneous absorption test was performed.
as §1, with “Melatonin and a solubilizing agent were placed” for “10 wt % melatonin was placed”, “then an” for “then 90 wt %”, “coated on” for “coated onto”, “a support” for “a supporting”, “cut by using” for “cut of”, “were observed.” for “were observed, and a percutaneous absorption test was performed.”
A crystallization inhibitor was placed and dissolved in a 70 mL vial, and then a solubilizing agent, an antioxidant and melatonin were added and dissolved, after which an adhesive was added thereto, followed by mixing in a roll mixer for 2 hours. Next, the mixture was allowed to stand for 30 minutes to remove bubbles, after which a silicone-treated polyethylene terephthalate release film was placed on a coating machine, and the mixed adhesive was dried, and then coated on the release film to 70 μm. Thereafter, the resultant was dried in an oven at 80° C. for 3 minutes, and then a support layer film was laminated thereon and compressed using a roller press. The resultant was cut by using a patch cutter, thereby manufacturing a patch having an area of 10 cm^2. Next, the physical properties of the patch and crystal formation were observed.
A crystallization inhibitor was placed and dissolved in a 70 mL vial, and then a solubilizing agent, an antioxidant, a percutaneous absorption enhancer and melatonin were added thereto and dissolved, after which an adhesive was added thereto, followed by mixing in a roll mixer for 2 hours. […]

[2] = melatonin administered orally; cited from earlier work

SMILES	Crystal formation (after 1 month) (microscopic observation) [1]	crystal formation in visual observation [1]	bioavailability [2] [%]	half-life [2]
CN1CCCC1=O [N-methyl pyrrolidone]	fine crystal formation	no crystal formation		
COc1ccc2[nH]cc(CCNC(C)=O)c2c1 [melatonin]			20	about 1 hour
CCOCCOCCO [Transcutol CG, ethoxydiglycol]	fine crystal formation	no crystal formation		
